# Measurements published in patent publication US7176226B2, “Crystal modification II of 2-[2-(1-chloro-cyclopropyl)-3-(2-chlorophenyl)-2-hydroxy-propyl]-2,4-dihydro-3H-1,2,4-triazole-3-thione” (Bayer Cropscience AG, priority 2002, dated 2007).
# Tests used:
# [1] = particle density of the crystal forms (Ultrapyknometer, or from single crystal X-ray structural analysis); type: physicochemical; details: for Density, calculated from SCA: calculated from single crystal X-ray structural analysis (SCA); for Density, experimental: method SOP 5024, Ultrapyknometer 1000 T
# Method: A DSC Pyris 1 from Perkin Elmer was used to determine the melting points. The measurements were carried out using a heating rate of 10 K min^−1. In each case, the given melting points refer to the peak maximum under the given conditions. The Raman spectra of the crystal forms were recorded using an RFS 100/S FT-Raman from Bruker (128 scans per measurement). The particle density was determined experimentally according to method SOP 5024 for determining densities using the Ultrapyknometer 1000 T from Quanta-Chrome or theoretically from the single crystal. X-ray structural analysis (SCA). The single crystal X-ray structural analysis was carried out using a P4RA four-cycle diffractometer from Siemens with rotating anode generator, graphite monochromator, scintillation counter and low-temperature unit. Measurement was carried out using molybdenum radiation of a wavelength of 0.71073 (MoKα).
# [2] = thermodynamic stability of the crystal forms; details: for thermodynamic stability of the crystal form: at room temperature
Structure (SMILES),"Density, calculated from SCA [1]","Density, experimental [1]",thermodynamic stability of the crystal form [2],temperature below which the crystal form is stable ([2]; pressure of 1013 mbar)
"OC(Cc1ccccc1Cl)(Cn1nc[nH]c1=S)C1(Cl)CC1 (stereo not shown) [form I, 2-[2-(1-chlorocyclopropyl)-3-(2-chlorophenyl)-2-hydroxypropyl]-2,4-dihydro-3H-1,2,4-triazole-3-thione, reference compound]",1.432 Mg/m^3,1.39 Mg/m^3,metastable,
"OC(Cc1ccccc1Cl)(Cn1nc[nH]c1=S)C1(Cl)CC1 (stereo not shown) [form II, 2-[2-(1-chlorocyclopropyl)-3-(2-chlorophenyl)-2-hydroxypropyl]-2,4-dihydro-3H-1,2,4-triazole-3-thione]",1.471 Mg/m^3,1.43 Mg/m^3,thermodynamically stable,below 90 °C
